Values after ≈ are worked out from the molar mass of the structure shown. Read-outs that look alike come from different tables or passages of the source.
Test system: Mycobacterium tuberculosis H37Rv (ATCC: 25177)
Assay: Resazurin Microplate Assay (REMA), antitubercular activity against H37Rv
Format: cell-based
Details: 192 h, read-out: Antitubercular activity against Mycobacterium tuberculosis H37Rv (MIC)
[1] = H37Rv, ATCC: 25177, REMA, Middlebrook 7H9 broth, 8 days incubation at 37° C. then resazurin overnight

| Structure (SMILES) | MIC (H37RV) [µg/mL] | MIC [1] [µg/mL] |
| --- | --- | --- |
| COC(=O)c1c(C(=O)OC)c2ccc3cc(C)ccc3n2c1C(=O)c1ccc(F)cc1 [7-METHYL-QUIN1, Dimethyl 1-(4-fluorobenzoyl)-7-methylpyrrolo[1,2-α]quinoline-2,3-dicarboxylate] | 0.5 (≈ 1.19 µM) | – |
| COC(=O)c1c(C(=O)OC)c2ccc3cc(C)ccc3n2c1C(=O)c1ccc(Br)cc1 [7-METHYL-QUIN2, Dimethyl 1-(4-bromobenzoyl)-7-methylpyrrolo[1,2-α]quinoline-2,3-dicarboxylate] | – | 2 (≈ 4.16 µM) |
| CCOC(=O)c1cc(C(=O)c2ccc(Cl)cc2)n2c1ccc1cc(C)ccc12 [7-METHYL-QUIN3, Ethyl 1-(4-chlorobenzoyl)-7-methylpyrrolo[1,2-α]quinoline-3-carboxylate] | – | 4 (≈ 10.2 µM) |
| COC(=O)c1c(C(=O)OC)c2ccc3cc(C)ccc3n2c1C(=O)c1ccc(Cl)cc1 [7-METHYL-QUIN4, Dimethyl 1-(4-chlorobenzoyl)-7-methylpyrrolo[1,2-α]quinoline-2,3-dicarboxylate] | – | 4 (≈ 9.18 µM) |

— patent publication US11926627B1 (priority 2023, dated 2024)
